Laboratory results from BigSolDB 2.1.

NNC(=O)c1ccncc1
solubility (mole fraction)
Conditions | 301 K | 303 K | 308 K | 311 K | 313 K
in acetone | 0.00946 | 0.0104 | 0.0136 | 0.016 | 0.0187
in ethanol | 0.00545 | 0.00579 | 0.00717 | 0.00816 | 0.00887
in ethyl acetate | 0.00159 | 0.00172 | 0.00206 | 0.00225 | 0.00251
in methanol | 0.0107 | 0.0114 | 0.0137 | 0.0154 | 0.0163
